Reference: ChEMBL document CHEMBL3991601, “The target landscape of clinical kinase drugs” (Science, 2017)
Active and inactive are the calls of the source.

Legend:
[1] = target: Dual specificity protein kinase CLK4 (Homo sapiens, UniProt Q9HAZ1)
[2] = target: Serine/threonine-protein kinase pim-2 (Homo sapiens, UniProt Q9P1W9)
[3] = target: Serine/threonine-protein kinase 38-like (Homo sapiens, UniProt Q9Y2H1)
[4] = target: ALK tyrosine kinase receptor (Homo sapiens, UniProt Q9UM73); assay type: subcellular, K-562, COLO 205, SK-N-BE(2) and MV-4-11, Cell lysate; details: read-out: Kd apparent
[5] = target: Serine/threonine-protein kinase ATR (Homo sapiens, UniProt Q13535)
[6] = target: Ras-related C3 botulinum toxin substrate 1 (Homo sapiens, UniProt P63000)
[7] = target: Uncharacterized aarF domain-containing protein kinase 5 (Homo sapiens, UniProt Q3MIX3)
[8] = target: T1, Cyclin-dependent kinase-like 5 (Homo sapiens, UniProt O76039)
T1 sequence (O76039 whole entry): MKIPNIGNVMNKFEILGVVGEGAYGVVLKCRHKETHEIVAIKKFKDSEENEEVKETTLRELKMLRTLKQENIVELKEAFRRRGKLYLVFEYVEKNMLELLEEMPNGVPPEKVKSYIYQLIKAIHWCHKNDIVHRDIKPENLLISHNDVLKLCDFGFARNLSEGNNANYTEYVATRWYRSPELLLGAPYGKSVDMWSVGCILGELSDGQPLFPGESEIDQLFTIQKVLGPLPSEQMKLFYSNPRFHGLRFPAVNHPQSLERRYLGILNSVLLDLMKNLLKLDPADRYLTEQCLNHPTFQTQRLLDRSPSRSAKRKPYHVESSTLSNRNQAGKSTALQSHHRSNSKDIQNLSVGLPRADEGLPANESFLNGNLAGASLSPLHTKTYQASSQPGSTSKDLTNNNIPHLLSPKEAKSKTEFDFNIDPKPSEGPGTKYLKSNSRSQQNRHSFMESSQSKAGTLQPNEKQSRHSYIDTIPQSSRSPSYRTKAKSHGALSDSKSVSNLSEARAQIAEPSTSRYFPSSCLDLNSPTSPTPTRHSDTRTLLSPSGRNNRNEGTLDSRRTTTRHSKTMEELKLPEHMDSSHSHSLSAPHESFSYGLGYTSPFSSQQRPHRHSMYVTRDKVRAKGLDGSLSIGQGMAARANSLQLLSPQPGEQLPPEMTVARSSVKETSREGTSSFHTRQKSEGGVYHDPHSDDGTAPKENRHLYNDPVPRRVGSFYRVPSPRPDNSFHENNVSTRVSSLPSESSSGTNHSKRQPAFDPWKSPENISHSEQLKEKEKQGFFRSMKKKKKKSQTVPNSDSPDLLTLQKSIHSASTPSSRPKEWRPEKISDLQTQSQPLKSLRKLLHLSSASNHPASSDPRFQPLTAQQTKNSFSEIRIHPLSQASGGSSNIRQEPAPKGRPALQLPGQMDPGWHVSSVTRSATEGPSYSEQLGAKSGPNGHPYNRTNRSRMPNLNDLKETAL

[9] = target: Tyrosine-protein kinase JAK2 (Homo sapiens, UniProt O60674)
[10] = target: Tyrosine-protein kinase Fgr (Homo sapiens, UniProt P09769)
[11] = target: Activin receptor type-1-like (Homo sapiens, UniProt P37023)
[12] = target: Cyclin-dependent kinase 18 (Homo sapiens, UniProt Q07002)
[13] = target: Cyclin-dependent kinase 9 (Homo sapiens, UniProt P50750)
[14] = target: Dual specificity tyrosine-phosphorylation-regulated kinase 1B (Homo sapiens, UniProt Q9Y463)
[15] = target: Cell division cycle 7-related protein kinase (Homo sapiens, UniProt O00311)

Measured: Kd
Further: in the data inactive means no Kd found up to 30 µM.

Sequence of Dual specificity protein kinase CLK4 (Q9HAZ1 whole entry): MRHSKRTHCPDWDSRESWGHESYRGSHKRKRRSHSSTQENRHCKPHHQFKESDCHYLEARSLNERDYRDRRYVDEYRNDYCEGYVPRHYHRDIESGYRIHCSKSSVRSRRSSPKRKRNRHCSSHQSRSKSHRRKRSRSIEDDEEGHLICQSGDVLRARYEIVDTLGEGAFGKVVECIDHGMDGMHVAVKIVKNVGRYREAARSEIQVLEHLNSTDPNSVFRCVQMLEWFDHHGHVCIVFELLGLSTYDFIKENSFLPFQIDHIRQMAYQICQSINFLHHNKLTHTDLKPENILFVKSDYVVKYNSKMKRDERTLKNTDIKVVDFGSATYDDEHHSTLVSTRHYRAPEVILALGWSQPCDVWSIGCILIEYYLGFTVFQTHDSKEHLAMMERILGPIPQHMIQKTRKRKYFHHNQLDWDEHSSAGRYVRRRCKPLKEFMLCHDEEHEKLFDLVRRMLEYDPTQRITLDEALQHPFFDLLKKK
Sequence of Serine/threonine-protein kinase 38-like (Q9Y2H1 whole entry): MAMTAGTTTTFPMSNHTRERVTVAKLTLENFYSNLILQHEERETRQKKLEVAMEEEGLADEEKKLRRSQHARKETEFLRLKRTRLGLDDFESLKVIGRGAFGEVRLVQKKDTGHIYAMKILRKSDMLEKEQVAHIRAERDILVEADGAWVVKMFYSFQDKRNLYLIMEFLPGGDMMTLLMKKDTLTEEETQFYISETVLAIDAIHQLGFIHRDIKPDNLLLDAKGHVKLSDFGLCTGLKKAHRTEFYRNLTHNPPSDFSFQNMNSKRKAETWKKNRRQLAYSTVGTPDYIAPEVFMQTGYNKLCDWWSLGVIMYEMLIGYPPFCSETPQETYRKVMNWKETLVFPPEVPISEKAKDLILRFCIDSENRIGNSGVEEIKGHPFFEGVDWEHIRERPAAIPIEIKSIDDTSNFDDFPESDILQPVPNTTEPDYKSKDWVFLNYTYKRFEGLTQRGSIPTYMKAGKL
Sequence of Cell division cycle 7-related protein kinase (O00311 whole entry): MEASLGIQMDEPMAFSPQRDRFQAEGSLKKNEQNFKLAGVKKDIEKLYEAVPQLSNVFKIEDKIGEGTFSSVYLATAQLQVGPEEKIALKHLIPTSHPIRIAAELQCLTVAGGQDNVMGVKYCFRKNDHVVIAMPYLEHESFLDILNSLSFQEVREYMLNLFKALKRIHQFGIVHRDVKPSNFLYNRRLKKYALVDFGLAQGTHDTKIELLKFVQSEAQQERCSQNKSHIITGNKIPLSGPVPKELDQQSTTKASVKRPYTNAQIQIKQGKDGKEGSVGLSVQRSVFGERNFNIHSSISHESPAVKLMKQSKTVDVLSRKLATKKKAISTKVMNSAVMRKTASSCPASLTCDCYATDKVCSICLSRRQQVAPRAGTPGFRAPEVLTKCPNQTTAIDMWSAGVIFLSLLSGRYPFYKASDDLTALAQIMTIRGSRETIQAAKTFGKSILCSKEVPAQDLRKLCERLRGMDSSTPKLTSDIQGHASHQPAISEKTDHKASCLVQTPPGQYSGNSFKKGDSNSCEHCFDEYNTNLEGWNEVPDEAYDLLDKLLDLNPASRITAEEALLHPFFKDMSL
Sequence of ALK tyrosine kinase receptor (Q9UM73 whole entry): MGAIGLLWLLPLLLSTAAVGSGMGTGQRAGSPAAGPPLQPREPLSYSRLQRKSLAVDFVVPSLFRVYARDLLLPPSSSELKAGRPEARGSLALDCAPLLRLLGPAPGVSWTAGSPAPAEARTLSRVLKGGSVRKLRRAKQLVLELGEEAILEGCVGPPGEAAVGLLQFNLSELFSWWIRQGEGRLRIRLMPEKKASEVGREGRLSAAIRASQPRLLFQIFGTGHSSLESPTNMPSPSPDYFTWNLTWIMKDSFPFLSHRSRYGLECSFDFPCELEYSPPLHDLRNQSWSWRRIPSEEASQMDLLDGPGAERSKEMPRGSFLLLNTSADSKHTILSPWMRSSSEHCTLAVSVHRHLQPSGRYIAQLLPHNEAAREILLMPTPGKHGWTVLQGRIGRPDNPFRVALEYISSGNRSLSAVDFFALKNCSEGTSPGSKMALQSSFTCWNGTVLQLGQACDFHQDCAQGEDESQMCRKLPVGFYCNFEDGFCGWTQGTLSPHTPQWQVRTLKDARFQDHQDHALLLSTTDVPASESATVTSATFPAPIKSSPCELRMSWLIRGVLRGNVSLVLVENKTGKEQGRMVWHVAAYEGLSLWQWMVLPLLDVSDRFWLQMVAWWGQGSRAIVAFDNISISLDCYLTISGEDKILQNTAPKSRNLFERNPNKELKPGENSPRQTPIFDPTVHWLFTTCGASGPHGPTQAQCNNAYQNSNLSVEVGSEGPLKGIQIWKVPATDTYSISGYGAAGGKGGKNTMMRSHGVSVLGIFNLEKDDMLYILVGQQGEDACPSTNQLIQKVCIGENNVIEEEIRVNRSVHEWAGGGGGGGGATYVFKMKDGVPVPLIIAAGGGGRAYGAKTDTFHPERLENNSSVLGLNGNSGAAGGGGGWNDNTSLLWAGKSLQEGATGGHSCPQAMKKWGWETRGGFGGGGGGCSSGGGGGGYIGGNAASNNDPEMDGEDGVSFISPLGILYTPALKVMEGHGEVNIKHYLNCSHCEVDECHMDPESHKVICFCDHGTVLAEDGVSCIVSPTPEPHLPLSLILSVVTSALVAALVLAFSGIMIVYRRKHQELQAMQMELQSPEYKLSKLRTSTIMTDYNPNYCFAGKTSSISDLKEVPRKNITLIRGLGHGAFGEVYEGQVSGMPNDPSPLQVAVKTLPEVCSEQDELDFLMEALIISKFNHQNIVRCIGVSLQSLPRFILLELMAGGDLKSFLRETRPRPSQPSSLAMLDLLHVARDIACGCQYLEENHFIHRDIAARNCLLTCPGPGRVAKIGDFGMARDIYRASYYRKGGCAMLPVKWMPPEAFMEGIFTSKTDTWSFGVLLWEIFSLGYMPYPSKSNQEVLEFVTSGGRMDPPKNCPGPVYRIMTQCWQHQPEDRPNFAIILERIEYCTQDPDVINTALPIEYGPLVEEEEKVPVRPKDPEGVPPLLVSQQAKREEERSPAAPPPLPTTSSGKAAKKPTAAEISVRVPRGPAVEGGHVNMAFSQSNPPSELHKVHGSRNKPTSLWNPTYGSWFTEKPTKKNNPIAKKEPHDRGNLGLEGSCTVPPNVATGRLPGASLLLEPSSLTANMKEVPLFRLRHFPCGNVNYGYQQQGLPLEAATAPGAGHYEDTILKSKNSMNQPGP
Sequence of Cyclin-dependent kinase 18 (Q07002 whole entry): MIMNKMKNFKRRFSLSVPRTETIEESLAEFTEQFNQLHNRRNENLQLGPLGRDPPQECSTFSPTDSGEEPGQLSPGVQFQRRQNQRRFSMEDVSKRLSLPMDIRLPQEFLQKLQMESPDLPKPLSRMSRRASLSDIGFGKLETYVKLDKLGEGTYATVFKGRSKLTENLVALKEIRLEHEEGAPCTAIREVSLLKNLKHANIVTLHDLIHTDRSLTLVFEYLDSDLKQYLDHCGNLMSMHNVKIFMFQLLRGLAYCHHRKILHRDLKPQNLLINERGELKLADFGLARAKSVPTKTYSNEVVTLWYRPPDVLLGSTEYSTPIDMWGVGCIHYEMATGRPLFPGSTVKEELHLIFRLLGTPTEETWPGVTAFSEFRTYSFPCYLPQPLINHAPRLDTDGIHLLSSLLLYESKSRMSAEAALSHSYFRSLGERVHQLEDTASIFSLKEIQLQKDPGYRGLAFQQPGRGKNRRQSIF
Sequence of Uncharacterized aarF domain-containing protein kinase 5 (Q3MIX3 whole entry, the tested form may be a part): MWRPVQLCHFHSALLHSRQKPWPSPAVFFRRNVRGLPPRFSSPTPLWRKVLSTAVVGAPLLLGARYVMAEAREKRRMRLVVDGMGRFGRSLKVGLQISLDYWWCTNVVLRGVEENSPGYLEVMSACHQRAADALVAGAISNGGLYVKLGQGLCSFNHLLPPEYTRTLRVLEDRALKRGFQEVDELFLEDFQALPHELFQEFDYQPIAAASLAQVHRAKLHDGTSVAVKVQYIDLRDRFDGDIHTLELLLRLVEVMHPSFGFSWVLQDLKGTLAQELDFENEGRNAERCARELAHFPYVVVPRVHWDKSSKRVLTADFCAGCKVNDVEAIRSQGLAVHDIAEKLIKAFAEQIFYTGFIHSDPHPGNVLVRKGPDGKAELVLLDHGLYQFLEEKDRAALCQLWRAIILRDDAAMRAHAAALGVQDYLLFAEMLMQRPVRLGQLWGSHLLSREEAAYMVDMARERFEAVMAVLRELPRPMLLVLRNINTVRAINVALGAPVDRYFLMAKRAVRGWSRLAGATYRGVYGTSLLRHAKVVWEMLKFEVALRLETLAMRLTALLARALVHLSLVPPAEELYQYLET
Sequence of Serine/threonine-protein kinase pim-2 (Q9P1W9 whole entry): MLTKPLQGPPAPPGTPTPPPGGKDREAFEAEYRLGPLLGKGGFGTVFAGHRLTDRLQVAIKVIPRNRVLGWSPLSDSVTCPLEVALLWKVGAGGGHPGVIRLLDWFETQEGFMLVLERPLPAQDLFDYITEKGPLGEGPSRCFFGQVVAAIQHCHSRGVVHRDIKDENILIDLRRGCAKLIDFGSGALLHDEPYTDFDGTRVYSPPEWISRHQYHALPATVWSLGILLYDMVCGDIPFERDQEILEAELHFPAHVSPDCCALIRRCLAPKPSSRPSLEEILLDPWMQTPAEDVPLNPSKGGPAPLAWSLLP
Sequence of Cyclin-dependent kinase 9 (P50750 whole entry): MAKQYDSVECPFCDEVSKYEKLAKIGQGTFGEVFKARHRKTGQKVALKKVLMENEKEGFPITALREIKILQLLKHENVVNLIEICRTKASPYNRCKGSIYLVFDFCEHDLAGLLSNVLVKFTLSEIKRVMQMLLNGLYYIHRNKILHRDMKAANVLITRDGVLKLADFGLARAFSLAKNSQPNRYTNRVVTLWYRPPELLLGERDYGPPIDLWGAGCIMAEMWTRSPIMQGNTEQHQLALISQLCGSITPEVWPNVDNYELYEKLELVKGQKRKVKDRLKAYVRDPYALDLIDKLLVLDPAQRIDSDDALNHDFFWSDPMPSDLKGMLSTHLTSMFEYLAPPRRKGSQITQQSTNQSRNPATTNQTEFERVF

O=C(Nc1nc2cccc(-c3ccc(CN4CCS(=O)(=O)CC4)cc3)n2n1)C1CC1 [FILGOTINIB]
inactive: [1] > 30 µM | [2] > 30 µM | [3] > 30 µM | [4] > 30 µM | [5] > 30 µM | [6] > 30 µM | [7] > 30 µM

CCCCCCCCCCCCCCCCCCOP(=O)([O-])OC1CC[N+](C)(C)CC1 [PERIFOSINE]
inactive: [2] > 30 µM | [3] > 30 µM | [6] > 30 µM

CO[C@H]1C[C@@H]2CC[C@@H](C)[C@@](O)(O2)C(=O)C(=O)N2CCCC[C@H]2C(=O)O[C@H]([C@H](C)C[C@@H]2CC[C@@H](O)[C@H](OC)C2)CC(=O)[C@H](C)/C=C(\C)[C@@H](O)[C@@H](OC)C(=O)[C@H](C)C[C@H](C)/C=C/C=C/C=C/1C [SIROLIMUS]
inactive: [1] > 30 µM | [8] > 30 µM | [9] > 30 µM | [10] > 30 µM | [11] > 30 µM | [12] > 30 µM | [13] > 30 µM | [14] > 30 µM | [7] > 30 µM | [15] > 30 µM

Cc1cc(Nc2ncnc3ccc(NC4=NC(C)(C)CO4)cc23)ccc1Oc1ccn2ncnc2c1 [TUCATINIB]
inactive: [1] > 30 µM | [8] > 30 µM | [12] > 30 µM | [4] > 30 µM | [6] > 30 µM | [15] > 30 µM
